Assays:
[1] = system: kokumi (initial taste, middle-after taste) scored by panelists; assay: quantitative organoleptic evaluation test of kokumi-imparting activity; assay type: in vivo, human; settings: for Intensity of kokumi, Initial taste: inosine monophosphate 0.05 g/dl, sodium chloride 0.5 g/dl; for Intensity of kokumi, Initial taste / Intensity of kokumi, Middle-after taste: score 0 control, 3 strong, 5 extremely strong, n=4
Method: Degree of kokumi-imparting activity of γ-Glu-Abu was investigated through a quantitative organoleptic evaluation test.
The quantitative organoleptic evaluation test was carried out as follows. Strength of the kokumi-imparting activity of a test compound was measured by using a mixture containing the test compound at 0.001 to 0.5 g/dl in distilled water containing sodium glutamate (0.05 g/dl), inosine monophosphate (0.05 g/dl), and sodium chloride (0.5 g/dl). A sample of the distilled water containing sodium glutamate, inosine monophosphate, and sodium chloride to which any test compound was not added was used as a no addition control. Samples that became acidic relative to the no addition control after dissolution of the test compound were used after pH of them was adjusted with NaOH to be within the range of ±0.2 from that of the no addition control.
The test was performed with organoleptic scores of 0 for the control, 3 for strong effect, and 5 for extremely strong effect, and n=4. Moreover, in order to make the criteria more definite, the scores of 0.001 g/dl of γ-Glu-Val-Gly for the initial taste and the middle-after taste were defined to be 3.0. The “middle-after taste” is a taste sensed in the periods for the middle taste and the aftertaste. Specifically, the initial taste, middle taste, and aftertaste are tastes sensed in the periods of 0 to 2 seconds, 2 to 5 seconds, and after 5 seconds, after eating, respectively, and the “middle-after taste” is a taste sensed in the period from 2 seconds to around 30 seconds. For the scoring, the linear scale method was used, in which determined scores were noted on a straight line on which positions of scores of from −5 to 5 were indicated. The panelists were consisted of persons who had experience of development of seasonings for foodstuffs for one year or longer in total, and could judge the difference of the titers of γ-Glu-Cys-Gly and γ-Glu-Val-Gly added to the tasty and salty solution to be about 10 times (this ability was periodically confirmed).
Kokumi-imparting activities of γ-Glu-Cys and other dipeptides were determined by the same quantitative organoleptic evaluation test as mentioned above.

storage stability = assay type: physicochemical; settings: compared with γ-Glu-Cys
CaSR = CaSR agonist activity; settings: previously found by the inventors
[2] = 0.2 g/dl in distilled water with sodium glutamate 0.05 g/dl
[3] = 0.2 g/dl in the same tasty and salty solution
[4] = 0.01 g/dl in distilled water with sodium glutamate 0.05 g/dl
[5] = 0.01 g/dl in the same tasty and salty solution

CaSR, sequence (P41180 20-1078): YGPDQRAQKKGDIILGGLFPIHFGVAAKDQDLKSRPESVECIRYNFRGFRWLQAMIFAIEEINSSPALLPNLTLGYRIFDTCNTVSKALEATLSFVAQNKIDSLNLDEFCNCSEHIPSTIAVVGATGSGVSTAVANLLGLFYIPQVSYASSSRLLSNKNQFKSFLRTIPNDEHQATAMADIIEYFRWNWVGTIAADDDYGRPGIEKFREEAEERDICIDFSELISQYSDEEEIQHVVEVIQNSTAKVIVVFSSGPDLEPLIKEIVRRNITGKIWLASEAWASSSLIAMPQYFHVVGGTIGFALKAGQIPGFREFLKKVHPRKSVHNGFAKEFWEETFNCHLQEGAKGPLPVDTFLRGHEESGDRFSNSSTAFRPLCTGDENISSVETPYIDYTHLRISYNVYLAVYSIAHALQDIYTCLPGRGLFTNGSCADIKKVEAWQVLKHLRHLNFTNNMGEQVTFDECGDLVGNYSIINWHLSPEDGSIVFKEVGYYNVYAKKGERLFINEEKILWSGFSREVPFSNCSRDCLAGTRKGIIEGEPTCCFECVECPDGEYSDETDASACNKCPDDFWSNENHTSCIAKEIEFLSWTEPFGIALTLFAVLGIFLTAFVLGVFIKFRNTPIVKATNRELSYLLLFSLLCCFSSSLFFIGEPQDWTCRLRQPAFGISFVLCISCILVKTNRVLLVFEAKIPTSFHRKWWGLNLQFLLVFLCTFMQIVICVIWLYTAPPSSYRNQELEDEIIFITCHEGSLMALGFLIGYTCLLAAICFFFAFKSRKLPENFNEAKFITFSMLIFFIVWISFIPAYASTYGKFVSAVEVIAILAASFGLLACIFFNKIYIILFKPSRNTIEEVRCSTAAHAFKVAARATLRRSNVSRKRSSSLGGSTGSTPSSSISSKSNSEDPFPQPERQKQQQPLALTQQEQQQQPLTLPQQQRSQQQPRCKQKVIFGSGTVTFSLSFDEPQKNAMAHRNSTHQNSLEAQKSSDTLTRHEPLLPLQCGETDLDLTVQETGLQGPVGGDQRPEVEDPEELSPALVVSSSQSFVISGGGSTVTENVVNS

| Molecule | Intensity of kokumi, Initial taste [1, 2] | Intensity of kokumi, Middle-after taste [1, 3] | Intensity of kokumi, Initial taste [1, 4] | Intensity of kokumi, Middle-after taste [1, 5] | further results |
| --- | --- | --- | --- | --- | --- |
| C[C@H](NC(=O)CC[C@H](N)C(=O)O)C(=O)O [γ-Glu-Ala] | 4.5 | 4.3 |  |  |  |
| N[C@@H](CCC(=O)N[C@@H](CS)C(=O)O)C(=O)O [γ-Glu-Cys, γ-glutamylcysteine] |  |  | 3.1 | 3.1 |  |
| N[C@@H](CCC(=O)N[C@@H](CO)C(=O)O)C(=O)O [γ-Glu-Ser] | 3.6 | 3.0 |  |  |  |
| CC(C)[C@H](NC(=O)CC[C@H](N)C(=O)O)C(=O)O [γ-Glu-Val] |  |  | 3.1 | 2.4 |  |
| L-γ-glutamyl-L-2-aminobutyric acid [γ-Glu-Abu] |  |  |  |  | Intensity of kokumi, Initial taste ([1]; 0.005 g/dl in distilled water with sodium glutamate 0.05 g/dl): 3.8; Intensity of kokumi, Middle-after taste ([1]; 0.005 g/dl in the same tasty and salty solution): 3.2; kokumi-imparting activity (in words) ([1]; addition concentration range 0.001 to 0.5 g/dl): showed kokumi-imparting activity in a broad range; kokumi titer (in words) ([1]; compared with γ-Glu-Ala): extremely high titer; storage stability (in words) (storage stability): superior storage stability; CaSR agonist activity (in words) (CaSR): high CaSR agonist activity |
